According to PubChem BioAssay (NCI):
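Interpolation was linear, between the two tested concentrations surrounding the appropriate level; five concentrations were tested over 48 hours in 96-well plates. Here, GI50 denotes the concentration required for 50% inhibition of growth. TGI is the concentration that stops growth completely.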

Key:
Assay in all cases: growth of human tumour cells (NCI), 48 h
M14 melanoma = system: M14 melanoma
UACC-257 melanoma = system: UACC-257 melanoma
SNB-75 CNS = system: SNB-75 CNS
BT-549 breast = system: BT-549 breast
IGROV1 ovarian = system: IGROV1 ovarian
HL-60(TB) leukemia = system: HL-60(TB) leukemia
COLO 205 colon = system: COLO 205 colon
A549 NSCLC = system: A549 NSCLC
SF-268 CNS = system: SF-268 CNS
HOP-92 NSCLC = system: HOP-92 NSCLC
SK-MEL-2 melanoma = system: SK-MEL-2 melanoma
OVCAR-8 ovarian = system: OVCAR-8 ovarian
786-0 renal = system: 786-0 renal
HOP-62 NSCLC = system: HOP-62 NSCLC
OVCAR-3 ovarian = system: OVCAR-3 ovarian
MDA-MB-231 breast = system: MDA-MB-231 breast
K-562 leukemia = system: K-562 leukemia
RXF 393 renal = system: RXF 393 renal
LOX IMVI melanoma = system: LOX IMVI melanoma
SR leukemia = system: SR leukemia
CAKI-1 renal = system: CAKI-1 renal
SN12C renal = system: SN12C renal
SK-MEL-5 melanoma = system: SK-MEL-5 melanoma
SK-MEL-28 melanoma = system: SK-MEL-28 melanoma
HCT-15 colon = system: HCT-15 colon
SNB-19 CNS = system: SNB-19 CNS
NCI-H23 lung = system: NCI-H23 lung
OVCAR-4 ovarian = system: OVCAR-4 ovarian
UO-31 renal = system: UO-31 renal
SK-OV-3 ovarian = system: SK-OV-3 ovarian
MDA-MB-435 = system: MDA-MB-435
DU-145 prostate = system: DU-145 prostate
HT29 colon = system: HT29 colon
SF-295 CNS = system: SF-295 CNS
ACHN renal = system: ACHN renal
SW-620 colon = system: SW-620 colon
OVCAR-5 ovarian = system: OVCAR-5 ovarian
EKVX NSCLC = system: EKVX NSCLC
A498 renal = system: A498 renal
UACC-62 melanoma = system: UACC-62 melanoma
NCI-H522 lung = system: NCI-H522 lung
MOLT-4 leukemia = system: MOLT-4 leukemia
RPMI-8226 leukemia = system: RPMI-8226 leukemia
NCI/ADR-RES ovarian = system: NCI/ADR-RES ovarian
U251 CNS = system: U251 CNS
NCI-H226 lung = system: NCI-H226 lung
MCF7 breast = system: MCF7 breast
SF-539 CNS = system: SF-539 CNS
PC-3 prostate = system: PC-3 prostate
HCT-116 colon = system: HCT-116 colon
NCI-H460 lung = system: NCI-H460 lung
HS 578T breast = system: HS 578T breast
TK-10 renal = system: TK-10 renal
MALME-3M melanoma = system: MALME-3M melanoma
HCC-2998 colon = system: HCC-2998 colon
CCRF-CEM leukemia = system: CCRF-CEM leukemia

## Clc1ccc(-c2nc(-c3ccccc3)cn3ccnc23)cc1
M14 melanoma
  GI50: 10.6 µM
  TGI: 27.4 µM
UACC-257 melanoma
  GI50: 20 µM
  TGI: 46.5 µM
SNB-75 CNS
  GI50: 13 µM
  TGI: 72 µM
BT-549 breast
  GI50: 11.3 µM
  TGI: 34.3 µM
IGROV1 ovarian
  GI50: 15.5 µM
  TGI: > 100 µM
HL-60(TB) leukemia
  GI50: 5.05 µM
  TGI: > 100 µM
COLO 205 colon
  GI50: 18.6 µM
  TGI: > 100 µM
A549 NSCLC
  GI50: 11 µM
  TGI: 29 µM
SF-268 CNS
  GI50: 10.6 µM
  TGI: 33 µM
HOP-92 NSCLC
  GI50: 11.1 µM
  TGI: 32.7 µM
SK-MEL-2 melanoma
  GI50: 53.4 µM
  TGI: > 100 µM
OVCAR-8 ovarian
  GI50: 20.6 µM
  TGI: 57.2 µM
786-0 renal
  GI50: 14 µM
  TGI: 37.3 µM
HOP-62 NSCLC
  GI50: 16.1 µM
  TGI: 52.5 µM
OVCAR-3 ovarian
  GI50: 1.82 µM
  TGI: 16.8 µM
MDA-MB-231 breast
  GI50: 12.3 µM
  TGI: 55.5 µM
K-562 leukemia
  GI50: 2.65 µM
  TGI: > 100 µM
RXF 393 renal
  GI50: 2.72 µM
  TGI: 28.6 µM
LOX IMVI melanoma
  GI50: 5.1 µM
  TGI: 19.5 µM
SR leukemia
  GI50: 0.627 µM
  TGI: > 100 µM
CAKI-1 renal
  GI50: 1.49 µM
  TGI: 17.7 µM
SN12C renal
  GI50: 21.3 µM
  TGI: > 100 µM
SK-MEL-5 melanoma
  GI50: 7.3 µM
  TGI: 27.2 µM
SK-MEL-28 melanoma
  GI50: 14.9 µM
  TGI: 58.3 µM
HCT-15 colon
  GI50: 1.8 µM
  TGI: 18 µM
SNB-19 CNS
  GI50: 25.6 µM
  TGI: > 100 µM
NCI-H23 lung
  GI50: 12.5 µM
  TGI: 36.4 µM
OVCAR-4 ovarian
  GI50: 14.6 µM
  TGI: 51.3 µM
UO-31 renal
  GI50: 20.2 µM
  TGI: > 100 µM
SK-OV-3 ovarian
  GI50: 32 µM
  TGI: > 100 µM
MDA-MB-435
  GI50: 1.43 µM
  TGI: 7.52 µM
DU-145 prostate
  GI50: 11.9 µM
  TGI: 34.9 µM
HT29 colon
  GI50: 7.45 µM
  TGI: 56.7 µM
SF-295 CNS
  GI50: 3.1 µM
  TGI: 16.7 µM
ACHN renal
  GI50: 11.4 µM
  TGI: 26.1 µM
SW-620 colon
  GI50: 4.75 µM
  TGI: 41.1 µM
OVCAR-5 ovarian
  GI50: 15.7 µM
  TGI: 44.7 µM
EKVX NSCLC
  GI50: 10 µM
  TGI: 48.8 µM
A498 renal
  GI50: 0.836 µM
  TGI: 16.1 µM
UACC-62 melanoma
  GI50: 17.7 µM
  TGI: 70 µM
NCI-H522 lung
  GI50: > 100 µM
  TGI: > 100 µM
MOLT-4 leukemia
  GI50: 5.89 µM
  TGI: > 100 µM
RPMI-8226 leukemia
  GI50: 3.44 µM
  TGI: 31.2 µM
NCI/ADR-RES ovarian
  GI50: 6.53 µM
  TGI: 25.9 µM
U251 CNS
  GI50: 6.61 µM
  TGI: 19.9 µM
NCI-H226 lung
  GI50: 74.7 µM
  TGI: > 100 µM
MCF7 breast
  GI50: 7.16 µM
  TGI: > 100 µM
SF-539 CNS
  GI50: 11.7 µM
  TGI: 31.8 µM
PC-3 prostate
  GI50: 14.2 µM
  TGI: 53.7 µM
HCT-116 colon
  GI50: 6.39 µM
  TGI: 21.5 µM
NCI-H460 lung
  GI50: 20.2 µM
  TGI: > 100 µM
HS 578T breast
  TGI: 17 µM

## N=c1c2ccccc2nc2oc3ccccc3n12
UACC-257 melanoma
  TGI: > 100 µM
BT-549 breast
  TGI: > 100 µM
IGROV1 ovarian
  TGI: > 100 µM
HL-60(TB) leukemia
  TGI: > 100 µM
COLO 205 colon
  TGI: > 100 µM
A549 NSCLC
  TGI: > 100 µM
SF-268 CNS
  TGI: 28 µM
HOP-92 NSCLC
  TGI: 80.6 µM
SK-MEL-2 melanoma
  TGI: > 100 µM
OVCAR-8 ovarian
  TGI: > 100 µM
HOP-62 NSCLC
  TGI: 88.2 µM
TK-10 renal
  TGI: 87.3 µM
K-562 leukemia
  TGI: > 100 µM
LOX IMVI melanoma
  TGI: > 100 µM
CAKI-1 renal
  TGI: > 100 µM
SN12C renal
  TGI: > 100 µM
MALME-3M melanoma
  TGI: > 100 µM
SK-MEL-5 melanoma
  TGI: 69.5 µM
HCT-15 colon
  TGI: > 100 µM
SNB-19 CNS
  TGI: > 100 µM
NCI-H23 lung
  TGI: > 100 µM
OVCAR-4 ovarian
  TGI: 61.4 µM
UO-31 renal
  TGI: > 100 µM
SK-OV-3 ovarian
  TGI: > 100 µM
MDA-MB-435
  TGI: > 100 µM
HCC-2998 colon
  TGI: > 100 µM
HT29 colon
  TGI: > 100 µM
SF-295 CNS
  TGI: > 100 µM
ACHN renal
  TGI: > 100 µM
SW-620 colon
  TGI: > 100 µM
OVCAR-5 ovarian
  TGI: > 100 µM
EKVX NSCLC
  TGI: 29.9 µM
A498 renal
  TGI: > 100 µM
UACC-62 melanoma
  TGI: > 100 µM
CCRF-CEM leukemia
  TGI: > 100 µM
RPMI-8226 leukemia
  TGI: > 100 µM
NCI/ADR-RES ovarian
  TGI: > 100 µM
MCF7 breast
  TGI: > 100 µM
SF-539 CNS
  TGI: > 100 µM
PC-3 prostate
  TGI: > 100 µM
HCT-116 colon
  TGI: > 100 µM
HS 578T breast
  TGI: 60.3 µM
